Source: PMC6522510 (Nature Communications, 2019)
Where two headings read alike, the source gives them in different places.

Legend:
Parameters in all cases: species or system AML cell lines (8); Primary HTS, single concentration about 10 uM, Cell Titer Glo viability; log10 luminescence, per cent inhibition relative to cycloheximide control
Conditions in all cases: 72 h, inhibitor
MV4-11 = test system: MV4-11
M07e = test system: M07e
MOLM-13 = test system: MOLM-13
CHRF288-11 = test system: CHRF288-11
U937 = test system: U937
ML-2 = test system: ML-2
CMK = test system: CMK
CMS = test system: CMS
[1] = relative to cycloheximide control, log10 luminescence
[2] = relative to cycloheximide control, log10 luminescence, MV4-11 %inh, 10 µM
[3] = relative to cycloheximide control, log10 luminescence, M07e %inh, 10 µM
[4] = relative to cycloheximide control, log10 luminescence, MOLM-13 %inh, 10 µM
[5] = relative to cycloheximide control, log10 luminescence, CHRF288-11 %inh, 10 µM
[6] = relative to cycloheximide control, log10 luminescence, U937 %inh, 10 µM
[7] = relative to cycloheximide control, log10 luminescence, ML-2 %inh, 10 µM
[8] = relative to cycloheximide control, log10 luminescence, CMK %inh, 10 µM
[9] = relative to cycloheximide control, log10 luminescence, CMS %inh, 10 µM

Structure (SMILES)	MV4-11 %inh (MV4-11; [1]) [%]	M07e %inh (M07e; [1]) [%]	MOLM-13 %inh (MOLM-13; [1]) [%]	CHRF288-11 %inh (CHRF288-11; [1]) [%]	U937 %inh (U937; [1]) [%]	ML-2 %inh (ML-2; [1]) [%]	CMK %inh (CMK; [1]) [%]	CMS %inh (CMS; [1]) [%]	further results
O=C1NC(=NCCc2cccc(Cl)c2)S/C1=C\c1ccc2ncccc2c1 [SJ000580956-1]	2.972	0.9407	9.124	2.333	20	10.56	32.59	5.008	–
O=C(Nc1n[nH]c2nc(-c3ccc(O)cc3)c(Br)cc12)C1CC1 [SJ000573153-1, AN100368-079A1]	59.64	20.28	85.66	61.88	31.9	13.84	121.4	105	–
CN1CCC(C(=O)Nc2n[nH]c3nnc(-c4ccccc4)cc23)CC1 [SJ000573074-1, JW48822-132A0]	34.03	2.861	8.108	65.15	1.724	3.693	70.18	83.36	–
Cn1cc(C2=C(c3ccsc3)C(=O)NC2=O)c2ccccc21 [SJ000581113-1]	4.067	3.37	31.75	8.413	0.5485	4.351	4.136	3.6	–
C[C@H](O)CNc1cc(-c2[nH]c3cccnc3c2-c2ccc(F)cc2)ccn1 [SJ000580968-1]	1.217	-0.9304	2.412	-0.7944	2.723	-2.119	8.696	-1.462	–
Nc1ccc(S(=O)(=O)Nc2ccccn2)cc1 [SJ000285852-4, SULFAPYRIDINE]	–	–	–	–	–	–	–	–	MV4-11 %inh (MV4-11; [2]): 0.2362%; M07e %inh (M07e; [3]): -0.2217%; MOLM-13 %inh (MOLM-13; [4]): -2.284%; CHRF288-11 %inh (CHRF288-11; [5]): -1.153%; U937 %inh (U937; [6]): 2.235%; ML-2 %inh (ML-2; [7]): 1.702%; CMK %inh (CMK; [8]): -3.962%; CMS %inh (CMS; [9]): 2.156%
CC1/C=C/C=C/C=C/C=C/C=C/C=C/C=C/C(OC2O[C@H](C)[C@@H](O)[C@H](N)[C@@H]2O)CC(O)C(C(=O)O)C(O)CC(=O)CC(O)CC(O)CC(O)CC(=O)CCCC(=O)CC(=O)OC1C(C)CC(C)C(O)CC(=O)c1ccc(N)cc1 (single isomer, unassigned) [SJ000565161-2, CANDICIDIN]	–	–	–	–	–	–	–	–	MV4-11 %inh (MV4-11; [2]): 0.2404%; M07e %inh (M07e; [3]): -1.61%; MOLM-13 %inh (MOLM-13; [4]): 0.5936%; CHRF288-11 %inh (CHRF288-11; [5]): 84.68%; U937 %inh (U937; [6]): -1.702%; ML-2 %inh (ML-2; [7]): -0.08515%; CMK %inh (CMK; [8]): -1.968%; CMS %inh (CMS; [9]): 0.8019%
Oc1ncc(N(CCCl)CCCl)c(O)n1 [SJ000518988-1, URACIL MUSTARD]	–	–	–	–	–	–	–	–	MV4-11 %inh (MV4-11; 10 µM): -1.171%; M07e %inh (M07e; 10 µM): 2.028%; MOLM-13 %inh (MOLM-13; 10 µM): -0.3938%; CHRF288-11 %inh (CHRF288-11; 10 µM): 3.507%; U937 %inh (U937; 10 µM): -0.2311%; ML-2 %inh (ML-2; 10 µM): 1.705%; CMK %inh (CMK; 10 µM): -4.305%; CMS %inh (CMS; 10 µM): 1.52%
Cn1cc(C2=C(c3c([S+](C)[O-])n(C)c4ccccc34)C(=O)NC2=O)c2ccccc21 (centres unmarked) [SJ000581040-1]	0.5816	1.342	-1.878	12.43	0.5237	2.43	-2.072	0.8019	–
Nc1ncc(-c2cccc(S(N)(=O)=O)c2)c2scc(-c3ccc(F)c(Cl)c3)c12 [SJ000573321-1, T398/119/1]	8.004	3.71	16.59	3.763	8.699	3.028	13	4.233	–
COc1cc2c(cc1O)CC[C@@H]1[C@@H]2CC[C@]2(C)[C@@H](O)CC[C@@H]12 [SJ000288002-5, 2-METHOXYESTRADIOL | 2-METHOXYESTRADIOL | PANZEM | PULMOLAR | 2-ME | 2-MEOE2 | 2ME2 | NSC-659853 | | 2-METHOXYESTRADIOL | 2-ME | 2-MEOE2 | 2ME2 | NSC-659853 | | 2-METHOXYESTRADIOL (2-MEOE2)]	–	–	–	–	–	–	–	–	MV4-11 %inh (MV4-11; [2]): 76.13%; M07e %inh (M07e; [3]): 94.34%; MOLM-13 %inh (MOLM-13; [4]): 80.44%; CHRF288-11 %inh (CHRF288-11; [5]): 61.44%; U937 %inh (U937; [6]): 80.21%; ML-2 %inh (ML-2; [7]): 56.77%; CMK %inh (CMK; [8]): 118%; CMS %inh (CMS; [9]): 96.86%
CCn1c(-c2nonc2N)nc2c(C#CC(C)(C)O)nc(CN3CCCC3)cc21 [SJ000573314-1, MR206418-021A1]	2.964	-3.096	-1.58	4.422	4.345	-0.4194	2.979	3.945	–
C[C@]12CCC(=O)C=C1[C@@H]1C[C@@H]1[C@H]1[C@@H]3[C@@H]4C[C@@H]4[C@@]4(CCC(=O)O4)[C@@]3(C)CC[C@@H]12 [SJ000312356-2, DROSPIRENONE]	3.583	3.09	1.327	6.784	3.696	-0.6244	38.69	0.9318	–
CC(C)C[C@H](N)[C@](O)(Cc1cnc[nH]1)C(=O)O [SJ000772431-1, LEUHISTIN]	3.279	1.038	0.702	4.998	2.882	5.093	-1.024	1.294	–
CC(=O)[C@@H]1[C@@H](C)N(Cc2ccccc2)C(=O)N[C@H]1c1cccc(C(F)(F)F)c1 [SJ000579797-1]	0.5112	-1.436	-2.815	8.301	0.542	0.485	-5.628	1.099	–
Fc1ccc(-c2ncn(CCCN3CCOCC3)c2-c2ccncc2)cc1 [SJ000573144-1, LDD-19018-277B]	-0.2277	0.1764	2.986	5.233	-0.4661	2.361	29.46	-0.05724	–
